Results published in the supplement of paper PMC10307832.

Experiments:
Test in all cases: relative viability (nuclei count vs DMSO), 5 days (fraction); higher = more cells survive
[1] = compound: Cc1ccc(NC(=O)c2ccc(CN3CCN(C)CC3)cc2)cc1Nc1nccc(-c2cccnc2)n1 [Imatinib] + Cc1cc(Nc2cc(N3CCN(C)CC3)nc(Sc3ccc(NC(=O)C4CC4)cc3)n2)n[nH]1 [Tozasertib] (partner 0.1 µM)
In short: (§1)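 After 5 days of treatment, lung cancer cells in 1536-well plates were fixed and stained in a single step (final 0.05% Triton X-100, 1% formaldehyde, 1 ug/ml Hoechst) and their nuclei counted on 4× images. Treatment had been applied by pin tool the day after seeding as one drug alone or as a fixed anchor-drug dose with five library-drug doses (not always all listed) in √10 steps. Relative viability is the nuclei count of treated wells divided by that of vehicle wells, and values are medians of duplicate plates.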

[2] = compound: Cc1ccc(NC(=O)c2ccc(CN3CCN(C)CC3)cc2)cc1Nc1nccc(-c2cccnc2)n1 [Imatinib] + CC(=O)c1c(C)c2cnc(Nc3ccc(N4CCNCC4)cn3)nc2n(C2CCCC2)c1=O [Palbociclib] (partner 0.5 µM)
In short: as §1

[3] = compound: Cc1ccc(NC(=O)c2ccc(CN3CCN(C)CC3)cc2)cc1Nc1nccc(-c2cccnc2)n1 [Imatinib] + CC1(C)CCC(c2ccc(Cl)cc2)=C(CN2CCN(c3ccc(C(=O)NS(=O)(=O)c4ccc(N[C@H](CCN5CCOCC5)CSc5ccccc5)c(S(=O)(=O)C(F)(F)F)c4)cc3)CC2)C1 [Navitoclax] (partner 0.5 µM)
In short: as §1

[4] = compound: Cc1ccc(NC(=O)c2ccc(CN3CCN(C)CC3)cc2)cc1Nc1nccc(-c2cccnc2)n1 [Imatinib] + C[C@]1(O)C[C@@H](c2nc(-c3ccc4ccc(-c5ccccc5)nc4c3)c3c(N)nccn32)C1 [Linsitinib] (partner 1 µM)
In short: as §1

Row | Cell Line | relative viability ([1]; first compound 0.02 µM) | relative viability ([1]; first compound 0.2 µM) | relative viability ([1]; first compound 2 µM) | relative viability ([2]; first compound 0.02 µM) | relative viability ([2]; first compound 0.06325 µM) | relative viability ([2]; first compound 0.2 µM) | relative viability ([2]; first compound 0.6325 µM) | relative viability ([2]; first compound 2 µM) | relative viability ([3]; first compound 0.02 µM) | relative viability ([3]; first compound 0.2 µM) | relative viability ([3]; first compound 0.6325 µM) | relative viability ([3]; first compound 2 µM) | relative viability ([4]; first compound 0.02 µM) | relative viability ([4]; first compound 0.2 µM) | relative viability ([4]; first compound 0.6325 µM) | relative viability ([4]; first compound 2 µM) | relative viability ([1]; first compound 0.6325 µM) | relative viability ([1]; first compound 0.06325 µM) | relative viability ([3]; first compound 0.06325 µM) | relative viability ([4]; first compound 0.06325 µM)
1 | 201T | 0.98 | 1.06 | 0.859 | 0.337 | 0.336 | 0.35 | 0.329 | 0.361 | 1.24 | 1.19 | 1.2 | 1.18 | 1.03 | 1.03 | 1.03 | 0.957 |  |  |  | 
2 | A-427 | 0.192 | 0.176 | 0.197 | 0.533 | 0.555 | 0.51 | 0.514 | 0.543 | 1.05 | 0.998 | 0.945 | 0.949 | 1.11 | 1.11 | 1.17 | 1.08 | 0.195 |  |  | 
3 | ABC-1 | 0.211 | 0.221 | 0.141 | 0.749 |  | 0.741 | 0.872 | 0.664 |  |  |  |  | 0.727 | 0.778 | 0.849 | 0.779 | 0.185 |  |  | 
4 | BEN | 0.523 | 0.489 | 0.51 | 0.469 | 0.541 | 0.488 | 0.458 | 0.467 | 0.0684 | 0.0665 | 0.0553 | 0.0529 | 0.908 | 0.921 | 0.837 | 0.969 | 0.492 | 0.546 | 0.0589 | 0.785
5 | CAL-12T | 0.369 | 0.311 | 0.225 | 0.374 | 0.412 | 0.535 | 0.496 | 0.444 | 1.44 | 1.21 | 1.38 | 0.974 | 0.908 | 0.996 | 0.982 | 0.788 | 0.293 |  | 1.32 | 0.877
6 | COR-L23 | 0.226 | 0.165 | 0.154 | 0.329 | 0.226 | 0.303 | 0.31 | 0.297 | 1.11 | 1.5 | 1.04 | 1.03 | 1.14 | 1.18 | 0.895 | 1.04 | 0.161 | 0.174 | 1.32 | 1.01
7 | COR-L 105 | 0.365 | 0.359 | 0.311 | 0.425 | 0.367 | 0.454 | 0.395 | 0.428 | 1.01 | 0.756 | 0.743 | 0.605 | 1.08 | 1 | 1.02 | 0.978 | 0.317 | 0.364 | 0.879 | 1.14
8 | Calu-6 |  |  |  |  |  |  |  |  | 0.976 | 0.777 | 0.85 | 0.814 | 0.993 | 1.07 | 0.967 | 1.04 |  |  | 0.804 | 0.997
9 | ChaGo-K-1 | 0.223 | 0.208 | 0.21 | 0.988 |  | 0.982 | 0.871 | 0.879 | 1.04 |  | 1.37 | 1.09 |  |  |  |  | 0.185 | 0.189 | 0.927 | 
10 | EBC-1 |  |  |  |  |  |  |  |  | 0.398 | 0.382 | 0.327 | 0.379 | 1.18 | 1.07 | 1.04 | 0.818 |  |  | 0.399 | 0.974
